# Source: PubChem BioAssay AID256 (DTP/NCI, 2004)
# Where “and” joins values, the source holds several entries; their conditions need not be identical. Equal values may be shown once. Toxic doses and inconclusive results are not listed.
# System: CD2F1 mice, L1210 leukemia ip, survival T/C
# Test: NCI In Vivo Anticancer Drug Screen. Data for tumor model L1210 Leukemia (intraperitoneal) in CD2F1 (CDF1) mice
# Conditions: endpoint: mean survival time, higher = longer survival
# Summary of the method: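 Antitumor effect is scored in animals hosting a serially transplanted tumor. Values compare compound-dosed animals against vehicle-only controls as a simple quotient.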
# [1] = dose: 100.0 mg/kg/injection, schedule: Q01DX001 (ip), vehicle: saline
# [2] = dose: 200.0 mg/kg/injection, schedule: Q01DX001 (ip), vehicle: saline
# [3] = dose: 400.0 mg/kg/injection, schedule: Q01DX001 (ip), vehicle: saline
# [4] = dose: 100.0 mg/kg/injection, schedule: Q04DX003 (ip), vehicle: saline with Tween-80
# [5] = dose: 200.0 mg/kg/injection, schedule: Q04DX003 (ip), vehicle: saline with Tween-80
# [6] = dose: 400.0 mg/kg/injection, schedule: Q04DX003 (ip), vehicle: saline with Tween-80
# [7] = dose: 100.0 mg/kg/injection, schedule: Q01DX009 (ip), vehicle: saline
# [8] = dose: 100.0 mg/kg/injection, schedule: Q04DX003 (ip), vehicle: saline
# [9] = dose: 200.0 mg/kg/injection, schedule: Q01DX009 (ip), vehicle: saline
# [10] = dose: 200.0 mg/kg/injection, schedule: Q04DX003 (ip), vehicle: saline
# [11] = dose: 400.0 mg/kg/injection, schedule: Q01DX009 (ip), vehicle: saline
# [12] = dose: 400.0 mg/kg/injection, schedule: Q04DX003 (ip), vehicle: saline
# [13] = dose: 50.0 mg/kg/injection, schedule: Q01DX009 (ip), vehicle: saline with Tween-80
# [14] = dose: 50.0 mg/kg/injection, schedule: Q04DX003 (ip), vehicle: saline
# [15] = dose: 100.0 mg/kg/injection, schedule: Q01DX009 (ip), vehicle: saline with Tween-80
smiles,measurement,setting,value
O=NC1CCCCC1Cl (stereo not given),T/C,[1],96 % of control and 98 % of control and 93 % of control
same,T/C,[2],95 % of control and 102 % of control and 100 % of control
same,T/C,[3],101 % of control and 105 % of control
S=C(CSc1ccccc1)Nc1cccc2ccccc12,T/C,[4],101 % of control
same,T/C,[5],91 % of control
same,T/C,[6],93 % of control
CC(=O)Nc1ccncn1,T/C,"dose: 25.0 mg/kg/injection, schedule: Q04DX002 (ip), vehicle: saline with Tween-80",97 % of control
same,T/C,"dose: 50.0 mg/kg/injection, schedule: Q04DX002 (ip), vehicle: saline with Tween-80",100 % of control
NCCCCCC(=O)O,T/C,"dose: 25.0 mg/kg/injection, schedule: Q01DX001 (ip), vehicle: saline",98 % of control
same,T/C,"dose: 50.0 mg/kg/injection, schedule: Q01DX001 (ip), vehicle: saline",98 % of control
same,T/C,[1],93 % of control
same,T/C,[7],94 % of control
same,T/C,[8],89 % of control
same,T/C,[9],96 % of control
same,T/C,[10],98 % of control
same,T/C,[11],97 % of control
same,T/C,[12],102 % of control
CCOC(=O)C(CCC(=O)O)NC(=O)OCc1ccccc1 (stereo not given),T/C,[4],97 % of control
same,T/C,[5],99 % of control
same,T/C,[6],91 % of control
CC[N](CC)[Ge]([CH2]C)[CH2]C.CC[N](CC)[Ge]([CH2]C)[CH2]C,T/C,"dose: 3.12 mg/kg/injection, schedule: Q01DX009 (ip), vehicle: saline",98 % of control
same,T/C,"dose: 3.12 mg/kg/injection, schedule: Q01DX009 (ip), vehicle: suspension in saline",98 % of control
same,T/C,"dose: 6.25 mg/kg/injection, schedule: Q01DX009 (ip), vehicle: saline",98 % of control
same,T/C,"dose: 6.25 mg/kg/injection, schedule: Q01DX009 (ip), vehicle: suspension in saline",114 % of control
same,T/C,"dose: 12.5 mg/kg/injection, schedule: Q01DX009 (ip), vehicle: saline",98 % of control
same,T/C,"dose: 12.5 mg/kg/injection, schedule: Q01DX009 (ip), vehicle: suspension in saline",106 % of control
same,T/C,"dose: 25.0 mg/kg/injection, schedule: Q01DX009 (ip), vehicle: saline",101 % of control
same,T/C,"dose: 25.0 mg/kg/injection, schedule: Q01DX009 (ip), vehicle: suspension in saline",97 % of control
same,T/C,"dose: 50.0 mg/kg/injection, schedule: Q01DX009 (ip), vehicle: saline",110 % of control
same,T/C,"dose: 50.0 mg/kg/injection, schedule: Q01DX009 (ip), vehicle: suspension in saline",101 % of control
Nc1ccccc1Nc1ccncc1,T/C,"dose: 25.0 mg/kg/injection, schedule: Q01DX009 (ip), vehicle: saline with Tween-80",100 % of control
same,T/C,[13],101 % of control
same,T/C,[4],91 % of control
O=CNCCN(C=O)CCO,T/C,[7],97 % of control
same,T/C,[9],104 % of control
same,T/C,[11],98 % of control
CC(C(=O)N1c2ccccc2Sc2ccccc21)[N+](C)(C)C (stereo not given),T/C,"dose: 12.5 mg/kg/injection, schedule: Q04DX003 (ip), vehicle: saline",97 % of control
same,T/C,"dose: 25.0 mg/kg/injection, schedule: Q04DX003 (ip), vehicle: saline",101 % of control
same,T/C,[14],101 % of control
CC1CC(O)C(N)C(O)C1 (stereo not given),T/C,[1],103 % of control
same,T/C,[2],98 % of control
same,T/C,[3],98 % of control
NCC1OC(OC2C(N)CC(N)C(O)C2OC2OC(CO)C(O)C2O)C(N)C(O)C1O (stereo not given),T/C,"dose: 75.0 mg/kg/injection, schedule: Q04DX003 (ip), vehicle: saline",96 % of control
same,T/C,"dose: 150.0 mg/kg/injection, schedule: Q04DX003 (ip), vehicle: saline",102 % of control
same,T/C,"dose: 300.0 mg/kg/injection, schedule: Q04DX003 (ip), vehicle: saline",100 % of control
O=C(O)C12CC3CC(CC(C3)C1)C2,T/C,[4],103 % of control
same,T/C,[5],105 % of control
same,T/C,[6],102 % of control
[Cl][Mo]([Cl])([Cl])[Cl].[Cl][Mo]([Cl])([Cl])[Cl],T/C,"dose: 100.0 mg/kg/injection, schedule: Q04DX002 (ip), vehicle: saline",112 % of control
same,T/C,"dose: 200.0 mg/kg/injection, schedule: Q04DX002 (ip), vehicle: saline",87 % of control
same,T/C,"dose: 400.0 mg/kg/injection, schedule: Q04DX002 (ip), vehicle: saline",108 % of control
O=[N+]([O-])c1cccnc1Oc1cccc(C(F)(F)F)c1,T/C,[7],95 % of control
same,T/C,[9],96 % of control
same,T/C,[11],91 % of control
O=S1(=O)CCS(=O)(=O)C1,T/C,"dose: 50.0 mg/kg/injection, schedule: Q01DX001 (ip), vehicle: saline with Tween-80",104 % of control
same,T/C,"dose: 100.0 mg/kg/injection, schedule: Q01DX001 (ip), vehicle: saline with Tween-80",98 % of control
same,T/C,"dose: 200.0 mg/kg/injection, schedule: Q01DX001 (ip), vehicle: saline with Tween-80",95 % of control
CC/C(=N\[N+](C)(C)C)c1ccccc1,T/C,"dose: 18.8 mg/kg/injection, schedule: Q01DX009 (ip), vehicle: saline",96 % of control
same,T/C,"dose: 37.5 mg/kg/injection, schedule: Q01DX009 (ip), vehicle: saline",91 % of control
CNCCSSCCN,T/C,[13],95 % of control
same,T/C,[14],98 % of control
same,T/C,[15],93 % of control
same,T/C,[8],93 % of control
same,T/C,[10],98 % of control
same,T/C,[12],98 % of control
O=C(C=P(c1ccccc1)(c1ccccc1)c1ccccc1)c1ccccc1,T/C,[4],97 % of control
same,T/C,[5],101 % of control
same,T/C,[6],89 % of control
O=C(/C=C/c1ccccn1)c1ccc(Cl)cc1,T/C,"dose: 100.0 mg/kg/injection, schedule: Q01DX001 (ip), vehicle: Klucel (hydroxypropylcellulose) (HPC)",97 % of control
same,T/C,"dose: 200.0 mg/kg/injection, schedule: Q01DX001 (ip), vehicle: Klucel (hydroxypropylcellulose) (HPC)",97 % of control
same,T/C,"dose: 400.0 mg/kg/injection, schedule: Q01DX001 (ip), vehicle: Klucel (hydroxypropylcellulose) (HPC)",105 % of control
CCCCCNC(=O)CCC(NC(=O)c1ccc(N(C)Cc2cnc3nc(N)nc(N)c3n2)cc1)C(=O)O (stereo not given),T/C,"dose: 1.0 mg/kg/injection, schedule: Q01DX009 (ip), vehicle: sodium bicarbonate",107 % of control
same,T/C,"dose: 10.0 mg/kg/injection, schedule: Q01DX009 (ip), vehicle: sodium bicarbonate",118 % of control
same,T/C,"dose: 50.0 mg/kg/injection, schedule: Q01DX009 (ip), vehicle: sodium bicarbonate",122 % of control
same,T/C,"dose: 200.0 mg/kg/injection, schedule: Q01DX009 (ip), vehicle: sodium bicarbonate",152 % of control
same,T/C,"dose: 400.0 mg/kg/injection, schedule: Q01DX009 (ip), vehicle: sodium bicarbonate",164 % of control
Cn1cccc1-c1cccnc1,T/C,"dose: 75.0 mg/kg/injection, schedule: Q01DX001 (ip), vehicle: saline",97 % of control
same,T/C,"dose: 150.0 mg/kg/injection, schedule: Q01DX001 (ip), vehicle: saline",100 % of control
O=C(O)C(=O)O.O=C(O)C(=O)O.[Th],T/C,[2],95 % of control
same,T/C,[3],97 % of control
Nc1ccnn1CCO,T/C,"dose: 100.0 mg/kg/injection, schedule: Q04DX003 (ip), vehicle: water",102 % of control
same,T/C,"dose: 200.0 mg/kg/injection, schedule: Q04DX003 (ip), vehicle: water",101 % of control
same,T/C,"dose: 400.0 mg/kg/injection, schedule: Q04DX003 (ip), vehicle: water",101 % of control
O=C(C1=C/C(=C\c2ccccc2)CCC1)c1ccccc1,T/C,[15],98 % of control
same,T/C,[4],104 % of control
same,T/C,"dose: 200.0 mg/kg/injection, schedule: Q01DX009 (ip), vehicle: saline with Tween-80",94 % of control
same,T/C,[5],100 % of control
same,T/C,"dose: 400.0 mg/kg/injection, schedule: Q01DX009 (ip), vehicle: saline with Tween-80",88 % of control
same,T/C,[6],102 % of control
O=[N+]([O-])c1ccc2nc3ccscc-3c2c1,T/C,"dose: 100.0 mg/kg/injection, schedule: Q01DX001 (ip), vehicle: acetone",100 % of control
same,T/C,"dose: 200.0 mg/kg/injection, schedule: Q01DX001 (ip), vehicle: acetone",100 % of control
same,T/C,"dose: 400.0 mg/kg/injection, schedule: Q01DX001 (ip), vehicle: acetone",92 % of control
c1cc[c]([Ge]([c]2ccccc2)([c]2ccccc2)[c]2ccccc2)cc1,T/C,[8],86 % of control
same,T/C,[10],86 % of control
same,T/C,[12],91 % of control
